# Measurements as given in article PMC4728560 (Scientific Reports, 2016).
# Tested on: Bcl-xL-Y101K
# Assay: Heterocomplex formation with Bcl-xL-Y101K mutant
# Assay type: binding, human
# Experimental: When not specified, proteins tested for binding experiments were mixed at 100 μM, dialyzed against 10 mM CHES pH 9, 50 mM NaCl, 1 mM DTT or TCEP, depending on the analysis, and heated overnight at 30 °C.
# For binding experiments, 100 to 200PL of protein mixture were loaded on a size exclusion chromatography (S200, GE Healthcare) column, while elution profiles were measured by UV absorption at 280 nm.
# SEC-MALS experiments were performed on a multi-angle light scattering detector (miniDAWN TREOS, Wyatt Technologies) coupled in-line with SEC and an interferometric refractometer (Optilab T-rEX, Wyatt Technologies). See Supplementary Information for full details.
# Prior to any mass spectrometry experiment, protein buffer was exchanged twice against a 50 mM ammonium acetate (NH4Ac) solution at pH 9.0 using microcentrifuge gel filtration columns (Zeba 0.5 ml, Thermo Scientific, Rockford, IL). Protein concentration was determined spectrophotometrically. […]
# Gel filtration. For binding experiments, 100 to 200PL of protein mixture were loaded on a size exclusion chromatography (S200, GE Healthcare) column, while elution profiles were measured by UV absorption at 280nm. […]
# For MALS experiments, the molar mass was determined by construction of Debye plot using Zimm formalism (plot of K*c/R(T) as a function of sin2(T/2)) at 0.5 and 1sec data intervals, for Superdex S200 column. […]
substance,measurement,value
"TCTP: Translationally Controlled Tumor Protein (TCTP/tpt1), recombinant full-length",complex formation with Bcl-xL-Y101K mutant,unable to form heterocomplexes
